What was measured:
[1] = target: T1, DC-SIGN (Homo sapiens, UniProt Q9NNX6); assay: Sugar competition, biotinylated DV binding to DC-SIGN-transfected 293T cells; assay type: cell-based; conditions: flow cytometry
T1 construct: expressed in transfected cells; host or cells: 293T cells
T1 sequence (Q9NNX6 1-404): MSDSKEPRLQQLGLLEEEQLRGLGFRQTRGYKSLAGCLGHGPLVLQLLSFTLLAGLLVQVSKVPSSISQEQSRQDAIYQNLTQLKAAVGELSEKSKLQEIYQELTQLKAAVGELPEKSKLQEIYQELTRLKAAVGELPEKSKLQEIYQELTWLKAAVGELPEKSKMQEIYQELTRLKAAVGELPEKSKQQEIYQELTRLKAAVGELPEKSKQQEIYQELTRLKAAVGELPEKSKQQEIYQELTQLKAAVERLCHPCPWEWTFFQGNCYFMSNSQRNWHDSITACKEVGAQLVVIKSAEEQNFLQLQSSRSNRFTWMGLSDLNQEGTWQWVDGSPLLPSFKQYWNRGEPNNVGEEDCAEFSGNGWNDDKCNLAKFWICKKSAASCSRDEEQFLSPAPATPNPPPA
Description: In FIG. 16b, complexes of DV (5×10^6 PFU) with receptor.Fc (5 μg) were immunoprecipitated and detected on westerns with mAb to DV envelope (E) protein. […] FIGS. 16d and 16e show sugar competition assays wherein both DC-SIGN (CLEC4L) and DVLR1/CLEC5A increase DV binding to human 293T cells (FIG. 16d), while addition of sugars inhibits biotinylated DV binding to DC-SIGN- (left panel) or DLVR1/CLEC5A- (right panel) transfected 293T cells in a dose-dependent manner as determined by flow cytometry (FIG. 16e). According to FIG. 16e, MFI represents mean fluorescence intensity. Units (U) for monosaccharide (mannose and fucose) and polysaccharide (mannan) are mM and mg/ml, respectively. […] Data are expressed as the mean±s.d. of three independent experiments. Two-tailed, Student's t-tests were performed.
There are two conserved N-linked glycosylation sites at Asn-67 and Asn-153 of E protein (Pokidysheva, E. et al., Cell 124:485-93 (2006)), and the attached glycans (with terminal fucose and mannose) have been implicated in cellular attachment and viral entry (Modis, Y. et al., J. Virol. 79:1223-1231 (2005)). To investigate the participation of glycans in the association of DVLR1/CLEC5A with DV, virions were incubated with fucose, mannose, or mannan; where the last two sugars are the ligands for DC-SIGN (Mitchell et al., J. Biol. Chem. 276: 28939-28945 ([…])).

[2] = target: T2, Dectin-1.Fc (Homo sapiens, UniProt Q9BXN2); assay: Immunosorbent dot binding assay with Dectin-1.Fc
T2 construct: The extracellular domains of lectin receptors, TREMs and TLTs were cloned by the reverse-transcriptase polymerase chain reaction (RT-PCR); made in house; host or cells: 293-F (FreeStyle 293) cells
T2 sequence (Q9BXN2 66-247 limits assumed): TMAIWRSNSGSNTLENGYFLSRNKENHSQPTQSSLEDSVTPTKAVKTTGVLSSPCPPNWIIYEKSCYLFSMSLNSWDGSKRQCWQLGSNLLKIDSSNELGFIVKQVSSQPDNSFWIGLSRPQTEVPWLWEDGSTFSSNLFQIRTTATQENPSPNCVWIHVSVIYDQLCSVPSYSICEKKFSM

[3] = target: T3, DC-SIGNR.Fc (Homo sapiens, UniProt Q9H2X3); assay: Immunosorbent dot binding assay with DC-SIGNR.Fc; conditions: polysaccharide immobilized on PVDF membrane; receptor.Fc 1 μg/mL
T3 construct: The extracellular domains of lectin receptors, TREMs and TLTs were cloned by the reverse-transcriptase polymerase chain reaction (RT-PCR); made in house; host or cells: 293-F (FreeStyle 293) cells
T3 sequence (Q9H2X3 71-399): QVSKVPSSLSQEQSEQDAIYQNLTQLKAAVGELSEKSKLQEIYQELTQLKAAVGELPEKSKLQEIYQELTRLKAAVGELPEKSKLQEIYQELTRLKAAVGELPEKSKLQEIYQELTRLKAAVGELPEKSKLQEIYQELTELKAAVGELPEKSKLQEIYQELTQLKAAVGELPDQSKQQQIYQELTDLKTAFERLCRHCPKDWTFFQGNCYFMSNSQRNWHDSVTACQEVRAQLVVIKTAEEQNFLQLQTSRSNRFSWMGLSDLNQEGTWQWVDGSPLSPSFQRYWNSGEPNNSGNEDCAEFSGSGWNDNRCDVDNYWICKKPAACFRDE

Row | Substance | inhibition of the DC-SIGN-DV interaction [1] | inhibition of the interaction between Dectin-1.Fc and F3 ([2]; competitor 0.1 μg-1000 μg, or EDTA 10 mM in TBST) | interaction with Dectin-1.Fc in dot-binding assay ([2]; polysaccharide immobilized on PVDF membrane, receptor.Fc 1 μg/mL) | interaction with DC-SIGNR.Fc in dot-binding assay [3]
1 | mannan | dose-dependent inhibition | – | – | –
2 | β-1,3-glucan [b-glucan] | – | inhibited | can bind | only Dectin-1.Fc can bind

From patent publication US8460669B2, “Compositions and methods for identifying response targets and treating flavivirus infection responses” (Academia Sinica, priority 2005, dated 2013)
